7 molecules from patent US7208517B1, “Endothelin antagonists” (Abbott Labortories, priority 1994, dated 2007) can be followed below.

The structures appear in SMILES notation.

The first assay has as its target T1, ETA Receptor (Rattus norvegicus, UniProt P26684).
T1 construct: endogenous in cells; host or cells: MMQ rat pituitary cells (membranes)
T1 sequence (P26684 21-426): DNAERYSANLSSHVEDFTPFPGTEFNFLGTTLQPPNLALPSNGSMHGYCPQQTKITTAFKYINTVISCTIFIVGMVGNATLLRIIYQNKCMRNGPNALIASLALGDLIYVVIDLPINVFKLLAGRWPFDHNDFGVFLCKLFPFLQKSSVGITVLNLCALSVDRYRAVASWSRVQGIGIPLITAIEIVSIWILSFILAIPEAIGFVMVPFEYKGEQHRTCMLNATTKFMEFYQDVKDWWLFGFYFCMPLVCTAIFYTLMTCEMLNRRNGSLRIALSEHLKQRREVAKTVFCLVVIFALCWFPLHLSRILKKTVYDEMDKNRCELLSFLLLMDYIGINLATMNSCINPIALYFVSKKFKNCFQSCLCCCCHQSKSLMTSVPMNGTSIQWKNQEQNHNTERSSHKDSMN
Kind of assay: [125I]ET-1 binding to membranes from MMQ cells (ETA receptor binding assay, Table 4). The settings on record: test compound at 1 μM; 0.1 nM [125I]ET-1, MMQ cell membranes, 4 hours at 25° C.; read-out: % Inhibition of ETA at 1 μM.
On to `CCCCN(CCCC)C(=O)CN1CC(c2cc(OC)c3c(c2)OCO3)C(C(=O)O)C1CC(C)(C)CCC` (stereo not drawn) [compound 514], for which the inhibition at 1 µM was 100%.
As for `CCCCN(CCCC)C(=O)CN1C[C@H](c2ccc3c(c2)OCO3)[C@@H](C(=O)O)[C@@H]1CCN1CCCC1=O` [compound 520], the inhibition at 1 µM was found to be 97.4%.
Take `CCCC(CCC)N(C(=O)CN1C[C@H](c2ccc3c(c2)OCO3)[C@@H](C(=O)O)[C@@H]1CCN1CCCC1=O)c1ccc(F)c(C)c1` [compound 521]: the inhibition at 1 µM was 100%.
On the same count and under the same terms, the result for `CCCCN(CCCN(C)C)C(=O)CN1CC(c2ccc3c(c2)OCO3)C(C(=O)O)C1c1ccc(OC)cc1` (stereo not drawn) [compound 527] reads 96.6%; that for `CCCCN(CCC[N+](C)(C)C)C(=O)CN1CC(c2ccc3c(c2)OCO3)C(C(=O)O)C1c1ccc(OC)cc1` (stereo not drawn) [compound 528], 98.3%; that for `CCCCN(CCCCN)C(=O)CN1CC(c2ccc3c(c2)OCO3)C(C(=O)O)C1c1ccc(OC)cc1` (stereo not drawn) [compound 529], 98.1%.
In the case of `CCCCN(CCCC)C(=O)CN1C[C@H](c2cc(OC)c3c(c2)OCO3)[C@@H](C(=O)O)[C@@H]1CC(C)(C)CCC` [compound 536], the inhibition at 1 µM is 100%.

In a further assay the target is T2, ETA receptor in MMQ cells (rET-A) (Rattus norvegicus, UniProt P26684).
T2 construct: endogenous in cells; host or cells: MMQ rat pituitary cells (membranes)
T2 sequence (P26684 21-426): T1 sequence (P26684 21-426)
Kind of assay: ETA/ETB selectivity: (125I)ET-1 competition binding, ETA assay in MMQ cell membranes (rET-A). The settings on record: MMQ cell membranes; 0.1 nM (125I)ET-1; read-out: rET-A IC50. The procedure:
(§1) The mixture was centrifuged at 1000×g for 10 min. The supernatant was collected and centrifuged at 60,000×g for 60 min. The precipitate was resuspended in 20 mM Tris, pH 7.4 containing protease inhibitor and centrifuged again. The final membrane pellet was resuspended in 20 mM Tris, pH 7.4 containing protease inhibitors and stored at −80° C. until used. Protein content was determined by the Bio-Rad dye-binding protein assay.
(§2) Binding assays were performed in 96-well microtiter plates pretreated with 0.1% BSA. […] After incubation, unbound ligands were separated from bound ligands by a vacuum filtration method using glass-fiber filter strips in PHD cell harvesters (Cambridge Technology, Inc., MA), washing the filter strips three times with saline (1 mL). Nonspecific binding was determined in the presence of 1 μM ET-1. IC50 values are calculated using an average of at least two separate determinations.
In the case of `CCCCN(CCCC)C(=O)CN1CC(c2cc(OC)c3c(c2)OCO3)C(C(=O)O)C1CC(C)(C)CCC` (stereo not drawn) [compound 514], the IC50 amounted to 0.001 µM.
Still for that read-out and setting: the result for `CCCCN(CCCC)C(=O)CN1C[C@H](c2ccc3c(c2)OCO3)[C@@H](C(=O)O)[C@@H]1CCN1CCCC1=O` [compound 520] reads 0.0002 µM; that for `CCCC(CCC)N(C(=O)CN1C[C@H](c2ccc3c(c2)OCO3)[C@@H](C(=O)O)[C@@H]1CCN1CCCC1=O)c1ccc(F)c(C)c1` [compound 521], 0.00067 µM.
Same read-out and setting: the result for `CCCCN(CCCN(C)C)C(=O)CN1CC(c2ccc3c(c2)OCO3)C(C(=O)O)C1c1ccc(OC)cc1` (stereo not drawn) [compound 527] reads 0.0079 µM.
Regarding `CCCCN(CCC[N+](C)(C)C)C(=O)CN1CC(c2ccc3c(c2)OCO3)C(C(=O)O)C1c1ccc(OC)cc1` (stereo not drawn) [compound 528], the IC50 worked out at 0.011 µM.
Same read-out and setting: then `CCCCN(CCCCN)C(=O)CN1CC(c2ccc3c(c2)OCO3)C(C(=O)O)C1c1ccc(OC)cc1` (stereo not drawn) [compound 529], with 0.0036 µM; and `CCCCN(CCCC)C(=O)CN1C[C@H](c2cc(OC)c3c(c2)OCO3)[C@@H](C(=O)O)[C@@H]1CC(C)(C)CCC` [compound 536], with 0.00052 µM.

The target of a further assay is T3, ETB receptors of porcine cerebellar tissues (pET-B) (Sus scrofa, UniProt P35463).
T3 construct: porcine cerebellar tissues (known to contain ETB receptors); from tissue; host or cells: porcine cerebellum (membranes)
T3 sequence (P35463 27-443): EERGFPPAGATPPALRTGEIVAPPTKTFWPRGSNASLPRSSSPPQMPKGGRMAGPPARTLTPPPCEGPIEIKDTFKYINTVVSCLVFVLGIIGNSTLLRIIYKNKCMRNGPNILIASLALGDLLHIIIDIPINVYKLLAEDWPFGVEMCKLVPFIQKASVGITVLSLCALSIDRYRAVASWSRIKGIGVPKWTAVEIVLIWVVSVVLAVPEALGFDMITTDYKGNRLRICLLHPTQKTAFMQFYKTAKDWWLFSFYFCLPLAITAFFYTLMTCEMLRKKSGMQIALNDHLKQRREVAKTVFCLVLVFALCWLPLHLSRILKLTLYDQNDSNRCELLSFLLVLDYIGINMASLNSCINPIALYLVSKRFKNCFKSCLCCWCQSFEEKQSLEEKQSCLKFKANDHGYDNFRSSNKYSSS
In words: ETA/ETB selectivity: (125I)ET-3 competition binding, ETB assay in porcine cerebellum membranes (pET-B).
Settings: not given
The procedure:
as §1, §2
On to `CCCCN(CCCC)C(=O)CN1CC(c2cc(OC)c3c(c2)OCO3)C(C(=O)O)C1CC(C)(C)CCC` (stereo not drawn) [compound 514], for which the IC50 is 26 µM.
The same measure, in the same setting: then `CCCCN(CCCC)C(=O)CN1C[C@H](c2cc(OC)c3c(c2)OCO3)[C@@H](C(=O)O)[C@@H]1CC(C)(C)CCC` [compound 536], with 17 µM.

The same assay, now with this note: porcine cerebellum membranes; 0.1 nM (125I)ET-3; read-out: pET-B IC50.
Regarding `CCCCN(CCCC)C(=O)CN1C[C@H](c2ccc3c(c2)OCO3)[C@@H](C(=O)O)[C@@H]1CCN1CCCC1=O` [compound 520], the IC50 turned out to be 28 µM.
Regarding `CCCC(CCC)N(C(=O)CN1C[C@H](c2ccc3c(c2)OCO3)[C@@H](C(=O)O)[C@@H]1CCN1CCCC1=O)c1ccc(F)c(C)c1` [compound 521], the IC50 is 37 µM.
With `CCCCN(CCCN(C)C)C(=O)CN1CC(c2ccc3c(c2)OCO3)C(C(=O)O)C1c1ccc(OC)cc1` (stereo not drawn) [compound 527], the IC50 was determined as 10 µM.
Still for that read-out and setting: then `CCCCN(CCC[N+](C)(C)C)C(=O)CN1CC(c2ccc3c(c2)OCO3)C(C(=O)O)C1c1ccc(OC)cc1` (stereo not drawn) [compound 528], with 43 µM.
The same measure, in the same setting: the result for `CCCCN(CCCCN)C(=O)CN1CC(c2ccc3c(c2)OCO3)C(C(=O)O)C1c1ccc(OC)cc1` (stereo not drawn) [compound 529] reads 6.3 µM.

For orientation: inhibition means the share of the control response that was lost under treatment. In general, IC50 refers to the concentration needed to halve the response being measured.
